From patent publication US12728116B2, “Methods of treating multiple sclerosis” (Vanda Pharmaceuticals Inc., priority 2021, dated 2026)

How the values were obtained:
Format in all cases: in vivo, human
[1] = tested on: adult subjects with relapsing MS; assay: Treatment-emergent adverse events (Safety Set); conditions: for AESI effect on heart rate and rhythm (including hypotension) on Day 1: subjects with at least one AE, %: Day 1 (ponesimod dose 2 mg);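 as to all read-outs here: safety Set comprises every randomized subject given one or more doses, analysed by the treatment actually received rather than the assigned arm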
Experimental: The Safety Set (SAF) included all randomized subjects who received at least one dose of study treatment. Subjects were analyzed based on actual treatment taken, not randomized treatment.

[2] = tested on: adult subjects with relapsing MS; assay: Time to first 12-week / 24-week confirmed disability accumulation (CDA) on EDSS
Experimental: Secondary efficacy variables and testing strategy: Four secondary efficacy endpoints were analyzed as per the statistical testing strategy outlined in FIG. 1. • Change from baseline to Week 108 in fatigue-related symptoms as measured by the symptoms domain of the FSIQ-RMS patient-reported outcome [Fatigue] • Cumulative number of combined unique active lesions from baseline to Week 108 on brain MRI [CUALs] • Time to first 12-week confirmed disability accumulation (CDA) from baseline to EOS on Expanded Disability Status Scale (EDSS) [12-week CDA] • Time to first 24-week CDA from baseline to EOS on EDSS [24-week CDA]
(§1) A 12-week CDA is an increase of at least 1.5 in EDSS for subjects with a baseline EDSS score of 0.0 or an increase of at least 1.0 in EDSS for subjects with a baseline EDSS score of 1.0 to 5.0, or an increase of at least 0.5 in EDSS for subjects with a baseline EDSS score≥5.5 which is to be confirmed after 12 weeks.
All EDSS measurements (with or without relapse, at a scheduled or unscheduled visit) were used to determine the onset of disability accumulation. However, EDSS scores used for confirmation of disability accumulation were obtained at a scheduled visit (i.e., unscheduled visits cannot be used as confirmatory visits) outside any ongoing relapse. In this context, relapse duration is defined as period between start and end dates if available and limited to 90 days from onset if end date is not available or duration is longer than 90 days.
In order to confirm that the EDSS increase is persistent, all EDSS measurements between the onset and the 12-week EDSS confirmation (minus 7-day visit time-window) need to show an increase in EDSS, meeting the criteria for accumulation of disability as defined above.
as §1, with “24-week” for “12-week”, “24” for “12”
In order to confirm that the EDSS increase is persistent, all EDSS measurements between the onset and the 24-week EDSS confirmation (minus 7-day visit time-window) need to show an increase in EDSS, meeting the criteria for accumulation of disability as defined above.

[3] = tested on: adult subjects with relapsing MS; assay: Confirmed relapses up to EOS - annualized relapse rate (ARR), phase III study
Experimental: Primary efficacy variable/primary timepoint: The primary endpoint was annualized relapse rate (ARR) up to the end of study (EOS) defined as the number of confirmed relapses per subject-year. All available data up to EOS, regardless of treatment discontinuation was included (ITT approach).
A generalized linear model with negative binomial distribution was fitted for the primary efficacy endpoint ARR. Two-sided hypotheses were expressed in terms of the model parameters μP20 mg and μT14 mg.
The primary statistical analysis of the ARR endpoint was performed on the FAS using a negative binomial model for confirmed relapses, with the stratification variables prior use of disease-modifying therapies (DMTs) and EDSS category as well as the number of relapses in the year prior to study entry, included in the model and time in the study as an offset variable. Sensitivity analyses was performed on the PPS and also based on different subgroups derived from baseline variables.
A relapse is defined as new, worsening or recurrent neurological symptoms that occur at least 30 days after the onset of a preceding relapse, and that last at least 24 hours, in the absence of fever or infection.
A relapse was confirmed by the treating neurologist only when the subjects' symptoms were accompanied by an increase in EDSS/FS (functional system) scores, which were consistent with the subject's symptoms, from a previous clinically stable EDSS/FS assessment (i.e., performed at least 30 days after the onset of any previous relapse), obtained by the efficacy assessor and consistent with the following: • An increase of at least half a step (0.5 points; unless EDSS=0, then an increase of at least 1.0 points is required) or • An increase of at least 1.0 point in at least two FS scores, or • An increase of at least 2.0 points in at least one FS score (excluding bladder/bowel and cerebral).
The primary statistical analysis was performed up to EOS on the FAS using a negative binomial regression model for confirmed relapses, with treatment as a factor and the binary stratification variables (EDSS≤3.5 versus EDSS>3.5; DMTs within last 2 years prior to randomization [Yes/No]) and the number of relapses in the year prior to study entry (categories≤1 (or missing) and […]) included in the model. The model also included an offset variable defined as the log of time on study (in years) from randomization up to EOS.
This subgroup analysis examined patients with EDSS≤3 (up to moderate disability in one function, or mild disability in three or four functions; no impairment to walking), and/or who were treatment naïve.
ARR differences and mean number of CUALs were examined using a negative binomial regression model with adjusting for the log time in the study (in years) as an offset.

[4] = ponesimod 20 mg, teriflunomide 14 mg
[5] = treatment-emergent AESI, Safety Set
[6] = treatment-emergent AESI, Safety Set, listed as ponesimod
[7] = treatment-emergent, Safety Set, listed as ponesimod
[8] = ponesimod 20 mg vs teriflunomide 14 mg, not statistically significant

With `CCC/N=C1\S/C(=C\c2ccc(OC[C@H](O)CO)c(Cl)c2)C(=O)N1c1ccccc1C` [Ponesimod, (R)-5-[3-chloro-4-(2,3-dihydroxy-propoxy)-benz[Z]ylidene]-2-([Z]-propylimino)-3-o-tolyl-thiazolidin-4-one] the “AESI effect on heart rate and rhythm (including hypotension) on Day 1: subjects with at least one AE, %” value ([1]; Safety Set) was “(2.1) %”, the “AESI effect on heart rate and rhythm (including hypotension) on Day 1: subjects with at least one AE, %” value ([1]; Safety Set, listed as ponesimod) was 2.1% and the “Day 1 AESI PT Atrioventricular block first degree, %” value ([1]; Day 1, Safety Set) was “(0.5) %”. The “Day 1 AESI PT Bradycardia, %” value ([1]; Day 1, Safety Set) was “(0.7) %”, the “Day 1 AESI PT Bundle branch block left, %” value ([1]; Day 1, Safety Set) was “(0.2) %” and the “Day 1 AESI PT Bundle branch block right, %” value ([1]; Day 1, Safety Set) was “(0.2) %”. For the same compound, the “Day 1 AESI PT Defect conduction intraventricular, %” value ([1]; Day 1, Safety Set) was “(0.4) %”, the “Day 1 AESI PT Sinus arrhythmia, %” value ([1]; Day 1, Safety Set) was “(0.2) %” and the “Day 1 AESI PT Sinus bradycardia, %” value ([1]; Day 1, Safety Set) was “(0.2) %”. For the same compound, the “TEAE ALT increased, subjects” value [1, 4] was 19.5%, the “TEAE headache, subjects” value [1, 4] was 11.5% and the “TEAE nasopharyngitis, subjects” value [1, 4] was 19.3%. The “TEAE upper respiratory tract infection, subjects” value [1, 4] was 10.6%, the “AESI category Effect on heart rate and rhythm (including aypotension), %” value [1, 5] was “(5.1) %” and the “AESI category Hepatobiliary disorders/Liver enzyme abnormality, %” value [1, 5] was “(25.7) %”. For the same compound, the “AESI category Herpetic infection, %” value [1, 5] was “(4.8) %”, the “AESI category Hypertension, %” value [1, 5] was “(10.1) %” and the “AESI category Macular edema, %” value [1, 5] was “(1.1) %”. The “AESI category Non-skin malignancy, %” value [1, 5] was “(0.2) %”, the “AESI category Pulmonary events, %” value [1, 5] was “(8.0) %” and the “AESI category Seizure, %” value [1, 5] was “(1.4) %”. For the same compound, the “AESI category Skin malignancy, %” value [1, 5] was “(0.9) %”, the “AESI category Hepatobiliary disorders/Liver enzyme abnormality, %” value [1, 6] was 25.7% and the “AESI category Hypertension, %” value [1, 6] was 10.1%. The “AESI category Pulmonary events, %” value [1, 6] was 8.0%, the “AESI category Infection, %” value ([1]; treatment-emergent AESI, only if reported as serious or severe, Safety Set) was “(1.6) %” and the “AEs leading to premature discontinuation, SOC Blood and lymphatic system disorders, %” value ([1]; treatment-emergent, Safety Set) was “(0.5) %”. The “AEs leading to premature discontinuation, SOC Cardiac disorders, %” value ([1]; treatment-emergent, Safety Set) was “(0.2) %”, the “AEs leading to premature discontinuation, SOC Eye disorders, %” value ([1]; treatment-emergent, Safety Set) was “(0.9) %” and the “AEs leading to premature discontinuation, SOC Gastrointestinal disorders, %” value ([1]; treatment-emergent, Safety Set) was “(0.7) %”. The “AEs leading to premature discontinuation, SOC General disorders and administration site conditions, %” value ([1]; treatment-emergent, Safety Set) was “(0.5) %”, the “AEs leading to premature discontinuation, SOC Hepatobiliary disorders, %” value ([1]; treatment-emergent, Safety Set) was “(0.5) %” and the “AEs leading to premature discontinuation, SOC Investigations, %” value ([1]; treatment-emergent, Safety Set) was “(2.1) %”. The “AEs leading to premature discontinuation, SOC Musculoskeletal and connective tissue disorders, %” value ([1]; treatment-emergent, Safety Set) was “(0.2) %”, the “AEs leading to premature discontinuation, SOC Neoplasms benign, malignant and unspecified (incl cysts and polyps), %” value ([1]; treatment-emergent, Safety Set) was “(0.2) %” and the “AEs leading to premature discontinuation, SOC Nervous system disorders, %” value ([1]; treatment-emergent, Safety Set) was “(0.4) %”. The “AEs leading to premature discontinuation, SOC Pregnancy, puerperium and perinatal conditions, %” value ([1]; treatment-emergent, Safety Set) was “(0.5) %”, the “AEs leading to premature discontinuation, SOC Psychiatric disorders, %” value ([1]; treatment-emergent, Safety Set) was “(0.2) %” and the “AEs leading to premature discontinuation, SOC Respiratory, thoracic and mediastinal disorders, %” value ([1]; treatment-emergent, Safety Set) was “(1.2) %”. For the same compound, the “AEs leading to premature discontinuation, SOC Skin and subcutaneous tissue disorders, %” value ([1]; treatment-emergent, Safety Set) was “(0.2) %”, the “AEs leading to premature discontinuation, SOC Social circumstances, %” value ([1]; treatment-emergent, Safety Set) was “(0.4) %” and the “AEs leading to premature discontinuation, SOC Vascular disorders, %” value ([1]; treatment-emergent, Safety Set) was “(0.5) %”. The “Subjects with at least one AE leading to study drug discontinuation, %” value ([1]; treatment-emergent, Safety Set) was “(8.7) %”, the “Subjects with at least one AE, %” value ([1]; treatment-emergent, Safety Set) was “(88.8) %” and the “Subjects with at least one Drug-Related AE, %” value ([1]; treatment-emergent, Safety Set) was “(49.2) %”. For the same compound, the “Subjects with at least one Serious AE, %” value ([1]; treatment-emergent, Safety Set) was “(8.7) %”, the “Subjects with at least one Severe AE, %” value ([1]; treatment-emergent, Safety Set) was “(6.9) %” and the “Subjects with at least one AE leading to study drug discontinuation, %” value [1, 7] was 8.7%. The “Subjects with at least one AE, %” value [1, 7] was 88.8%, the “Subjects with at least one Serious AE, %” value [1, 7] was 8.7% and the “Time to first 24-week CDA, hazard ratio ponesimod vs teriflunomide” value ([2]; Full Analysis Set, exploratory) was 0.84. The “Time to first 12-week CDA, hazard ratio ponesimod vs teriflunomide” value ([2]; Full Analysis Set, stratified Cox regression) was 0.83, the “Reduction of risk of 12-week CDA compared to teriflunomide” value [2, 8] was 17% and the “Reduction of risk of 24-week CDA compared to teriflunomide” value [2, 8] was 16%. The “Subjects with a 12-week CDA up to EOS” value [2, 4] was 10.1%, the “Subjects with a 24-week CDA up to EOS” value ([2]; ponesimod 20 mg, teriflunomide 14 mg, exploratory) was 8.1% and the “ARR rate ratio (RR), ponesimod vs teriflunomide” value ([3]; EDSS≤3 subgroup) was 0.530. The “Reduction of ARR vs teriflunomide” value ([3]; EDSS≤3 subgroup) was 47%, the “Raw ARR” value ([3]; Full Analysis Set) was 0.216 and the “Total number of relapses (confirmed, up to EOS)” value ([3]; Full Analysis Set, total time 1119 / 1137 years) was 242. The “Reduction of ARR (confirmed relapses) up to EOS compared to teriflunomide” value ([3]; ponesimod 20 mg vs teriflunomide 14 mg) was 30.5%, the “Treatment effect (rate ratio) on ARR, ponesimod vs teriflunomide” value ([3]; ponesimod 20 mg vs teriflunomide 14 mg, Full Analysis Set) was 0.695 and the “Mean estimate (ARR), confirmed relapses up to EOS, negative binomial regression” value ([3]; ponesimod 20 mg, teriflunomide 14 mg, Full Analysis Set) was 0.202.
